Results from patent EP3723745B1, “PHENOXY ACIDS FOR THE TREATMENT OF NEUROMUSCULAR DISORDERS” (NMD Pharma A/S, priority 2017, dated 2019).

Experiments:
CIC-1 channels = molecular target: T1, CIC-1 channels (Rattus norvegicus, UniProt P35524); test: Electrophysiological measurement of compound inhibition of CIC-1 in rat muscle (Gm, three micro-electrodes technique); type: cell-based; conditions: reduction of Gm in fibres of whole rat soleus muscles, approx. 30°C; n = number of experiments
T1 construct: from tissue; host or cells: intact soleus muscle of 12-14-week old Wistar rats
T1 sequence (P35524 1-994): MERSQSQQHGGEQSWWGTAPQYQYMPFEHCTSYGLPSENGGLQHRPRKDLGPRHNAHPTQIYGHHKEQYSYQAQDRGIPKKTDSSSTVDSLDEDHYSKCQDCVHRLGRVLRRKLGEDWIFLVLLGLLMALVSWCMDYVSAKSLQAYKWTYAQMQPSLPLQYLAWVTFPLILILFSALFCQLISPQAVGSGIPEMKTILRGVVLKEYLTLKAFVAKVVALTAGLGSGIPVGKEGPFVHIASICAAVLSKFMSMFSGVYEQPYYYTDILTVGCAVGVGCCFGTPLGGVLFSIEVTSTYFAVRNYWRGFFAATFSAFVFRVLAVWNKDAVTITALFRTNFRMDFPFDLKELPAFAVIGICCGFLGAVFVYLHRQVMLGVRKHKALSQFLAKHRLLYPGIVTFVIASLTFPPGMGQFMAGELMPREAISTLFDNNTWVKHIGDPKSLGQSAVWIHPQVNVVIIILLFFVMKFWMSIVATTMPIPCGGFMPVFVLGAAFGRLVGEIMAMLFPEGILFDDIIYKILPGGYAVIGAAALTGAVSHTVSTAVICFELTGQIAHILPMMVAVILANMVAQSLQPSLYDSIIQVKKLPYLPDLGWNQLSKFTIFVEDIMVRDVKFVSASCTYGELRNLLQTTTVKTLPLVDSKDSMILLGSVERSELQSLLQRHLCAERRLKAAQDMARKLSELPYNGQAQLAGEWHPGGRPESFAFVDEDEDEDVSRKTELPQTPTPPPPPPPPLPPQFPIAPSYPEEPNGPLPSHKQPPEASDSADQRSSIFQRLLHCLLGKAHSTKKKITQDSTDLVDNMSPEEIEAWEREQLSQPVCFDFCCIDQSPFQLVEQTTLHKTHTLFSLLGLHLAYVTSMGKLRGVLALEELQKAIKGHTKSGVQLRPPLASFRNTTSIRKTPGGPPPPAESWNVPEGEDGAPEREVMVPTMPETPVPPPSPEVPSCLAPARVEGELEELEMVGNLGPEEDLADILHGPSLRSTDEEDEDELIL
From the text: Table 2: Inhibition of CIC-1 ion channel using compounds of the invention

soleus muscles = test: Measurement of force in an in vitro model: isolated rat nerve-muscle preparation with tubocurarine; conditions: Rattus norvegicus, 40 min; percentage of initial force restored after 40 mins with 50 µM test compound; tubocurarine (115 nM) for 90 mins; read-out: Point increase
Method: Recovery of force is quantified as the percentage of the force prior to tubocurarine that is recovered by the compound.
The current invention relates to compounds that inhibit CIC-1 ion channels and increase muscle excitability and thereby improve muscle function in clinical conditions where muscle activation is failing. Such conditions result in loss of contractile function of skeletal muscle, weakness and excessive fatigue. In this series of experiments the compounds were tested for their ability to restore contractile function of isolated rat muscle when the neuromuscular transmission had been compromised akin to neuromuscular disorders.
Experimentally, soleus muscles from 4-5 wk old rats were isolated with the motor nerve remaining attached. The nerve-muscle preparations were mounted in experimental setups that enabled electrical stimulation of the motor nerve. Stimulation of the motor nerve led to activation of the muscle fibres and ensuing force production that was recorded.
After mounting the nerve-muscle preparation in the experimental setup, the contractile function of the muscle was initially assessed under the control conditions (Figure 2A). […] The experimental condition mimics the failing neuromuscular transmission in a range of neuromuscular disorders. After addition of tubocurarine the contractile force declined over the next 90 mins to 10-50 % of the control force. 50 µM of the test compound was then added and the contractile force recovered despite the continued presence of tubocurarine. To quantify the ability of the compound to restore force the percentage of the initial force that was restored was determined after 40 mins of compound exposure (Figure 2B) and the point increase is reported in Table 3. Table 3: Percentage increase of initial force that was restored using compounds of the invention

female Lewis rats = test: Measurement of in situ muscle contractile characteristics (isometric hindlimb force, cisatracurium block); type: in vivo, rat
Method: Isometric hindlimb force was measured in 12-week old female Lewis rats in the presence and absence of compound.
Rats were placed under anesthesia with isoflurane (2-4%), intubated and subsequently connected to a micro ventilator (Microvent 1, Hallowell EMC, US). Two stimulation electrodes were inserted through the skin to stimulate the sciatic nerve. A small incision was made proximal to the ankle, to expose the Achilles tendon, which was tied by cotton string, and connected to a force transducer (Fort250, World Precision Instruments) with adjustable position (Vernier control). The Achilles tendon was then cut distal to the attached cotton string. The rat was placed on a heated pad, and to prevent movement artefacts from contraction of the ankle dorsiflexors, the foot was fixated by tape on a footplate.
Muscle contractile properties were assessed by applying an electrical current (under supramaximal voltage conditions) to the nerve and recording the force generated by the muscle. The muscle was stretched until maximal force was obtained, when assessed by 2 Hz stimulation. Isometric force was measured every 30 seconds at 12 Hz (Twitch), 10 pulses, and at every 5 minutes at 80 Hz (Tetanic) for 1 second (80 pulses). This stimulation pattern was employed throughout the experiment, expect in few cases where 80 Hz stimulation was replaced by 12 Hz (10 pulses). […] When the level of neuromuscular inhibition was stable, the test article was injected i.v. at the chosen concentration. The effect of test article was assessed on its ability to increase force generated from the stimulation pattern applied. The effect was assessed in the ability to increase force per se (tetanic, 80 Hz, stimulation), and the ratio between individual twitch peaks (12 Hz stimulation). The effect was monitored for at least 1 hour after injection of test article. In addition, the time from injection of test article to maximal effect on force (both twitch and tetanic) was noted and the time for the effect to disappear (return to baseline), if possible. When appropriate the infusion of neuromuscular blocking agent was ceased, with the stimulation pattern continued, and the return of force to control levels was monitored. Animals were sacrificed by cervical dislocation while still fully sedated.

- EC50 (CIC-1 channels): 12 ± 3.2 µM
Compound: C[C@@H](F)[C@H](Oc1ccc(Br)cc1)C(=O)O [Compound A-94, (2R,3R)-2-(4-bromophenoxy)-3-fluorobutanoic acid]
- activation at 50 µM (soleus muscles): 31%
- average increase in twitch peaks (female Lewis rats; 21 mg/kg i.v., 12 Hz, cisatracurium infusion): 11.5%
- average increase in tetanic force (female Lewis rats; 21 mg/kg i.v., 80 Hz, cisatracurium infusion): 34.8%
- restore force to muscles in vivo (female Lewis rats; muscles partially inhibited by a neuromuscular blocker, summary in words): can restore force
